Experimental data from paper PMC6199309, “A therapeutic approach to pantothenate kinase associated neurodegeneration” (Nature Communications, 2018).

Tests used:
[1] = molecular target: T1, PFCDPK1(P.falciparum) (Plasmodium falciparum, UniProt P62344); experiment: KINOMEscan; type: binding; conditions: read-out: %Ctrl @ 10000nM
T1 construct: purchased DiscoverX KINOMEscan

[2] = molecular target: T2, TNK2 (Homo sapiens, UniProt Q07912); experiment: KINOMEscan; type: binding; conditions: read-out: %Ctrl @ 10000nM
T2 construct: purchased DiscoverX KINOMEscan

[3] = molecular target: T3, PIK3CA (Homo sapiens, UniProt P42336); experiment: KINOMEscan; type: binding; conditions: read-out: %Ctrl @ 10000nM
T3 construct: purchased DiscoverX KINOMEscan

[4] = molecular target: T4, EPHA4 (Homo sapiens, UniProt P54764); experiment: KINOMEscan; type: binding; conditions: read-out: %Ctrl @ 10000nM
T4 construct: purchased DiscoverX KINOMEscan
T4 sequence (P54764 20-986): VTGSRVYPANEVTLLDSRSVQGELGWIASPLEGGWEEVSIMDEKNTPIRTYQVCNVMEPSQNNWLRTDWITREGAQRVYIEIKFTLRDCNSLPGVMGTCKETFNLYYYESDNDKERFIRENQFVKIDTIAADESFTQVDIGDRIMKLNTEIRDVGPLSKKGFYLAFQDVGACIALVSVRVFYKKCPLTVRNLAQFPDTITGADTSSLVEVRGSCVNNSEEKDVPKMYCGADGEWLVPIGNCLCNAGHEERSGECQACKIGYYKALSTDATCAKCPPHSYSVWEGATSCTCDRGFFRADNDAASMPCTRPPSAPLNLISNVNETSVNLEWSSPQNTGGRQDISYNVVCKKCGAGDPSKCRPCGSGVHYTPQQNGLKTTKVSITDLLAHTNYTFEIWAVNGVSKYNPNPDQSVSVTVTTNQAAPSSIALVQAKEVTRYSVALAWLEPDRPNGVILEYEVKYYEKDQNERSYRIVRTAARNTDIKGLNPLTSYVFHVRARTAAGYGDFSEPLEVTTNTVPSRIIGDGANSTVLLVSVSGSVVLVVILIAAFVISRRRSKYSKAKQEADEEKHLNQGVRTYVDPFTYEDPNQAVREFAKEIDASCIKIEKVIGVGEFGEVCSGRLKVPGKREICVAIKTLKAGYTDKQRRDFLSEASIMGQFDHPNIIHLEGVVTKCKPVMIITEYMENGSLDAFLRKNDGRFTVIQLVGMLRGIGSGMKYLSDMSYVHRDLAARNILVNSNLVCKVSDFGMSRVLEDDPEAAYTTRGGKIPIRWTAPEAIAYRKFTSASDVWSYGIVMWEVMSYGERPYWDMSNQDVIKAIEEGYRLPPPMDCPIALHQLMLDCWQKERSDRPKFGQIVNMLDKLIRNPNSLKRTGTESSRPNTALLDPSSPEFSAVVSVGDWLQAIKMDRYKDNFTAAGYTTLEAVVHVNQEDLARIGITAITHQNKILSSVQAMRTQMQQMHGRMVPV

[5] = molecular target: T5, EPHA2 (Homo sapiens, UniProt P29317); experiment: KINOMEscan; type: binding; conditions: read-out: %Ctrl @ 10000nM
T5 construct: purchased DiscoverX KINOMEscan

[6] = Protein binding; conditions: human
[7] = molecular target: T6, IKK-epsilon (Homo sapiens, UniProt Q14164); experiment: KINOMEscan; type: binding; conditions: read-out: %Ctrl @ 10000nM
T6 construct: purchased DiscoverX KINOMEscan

[8] = molecular target: T7, NEK6 (Homo sapiens, UniProt Q9HC98); experiment: KINOMEscan; type: binding; conditions: read-out: %Ctrl @ 10000nM
T7 construct: purchased DiscoverX KINOMEscan

[9] = molecular target: T8, TLK2 (Homo sapiens, UniProt Q86UE8); experiment: KINOMEscan; type: binding; conditions: read-out: %Ctrl @ 10000nM
T8 construct: purchased DiscoverX KINOMEscan

[10] = molecular target: T9, SRPK1 (Homo sapiens, UniProt Q96SB4); experiment: KINOMEscan; type: binding; conditions: read-out: %Ctrl @ 10000nM
T9 construct: purchased DiscoverX KINOMEscan
T9 sequence (Q96SB4 whole entry): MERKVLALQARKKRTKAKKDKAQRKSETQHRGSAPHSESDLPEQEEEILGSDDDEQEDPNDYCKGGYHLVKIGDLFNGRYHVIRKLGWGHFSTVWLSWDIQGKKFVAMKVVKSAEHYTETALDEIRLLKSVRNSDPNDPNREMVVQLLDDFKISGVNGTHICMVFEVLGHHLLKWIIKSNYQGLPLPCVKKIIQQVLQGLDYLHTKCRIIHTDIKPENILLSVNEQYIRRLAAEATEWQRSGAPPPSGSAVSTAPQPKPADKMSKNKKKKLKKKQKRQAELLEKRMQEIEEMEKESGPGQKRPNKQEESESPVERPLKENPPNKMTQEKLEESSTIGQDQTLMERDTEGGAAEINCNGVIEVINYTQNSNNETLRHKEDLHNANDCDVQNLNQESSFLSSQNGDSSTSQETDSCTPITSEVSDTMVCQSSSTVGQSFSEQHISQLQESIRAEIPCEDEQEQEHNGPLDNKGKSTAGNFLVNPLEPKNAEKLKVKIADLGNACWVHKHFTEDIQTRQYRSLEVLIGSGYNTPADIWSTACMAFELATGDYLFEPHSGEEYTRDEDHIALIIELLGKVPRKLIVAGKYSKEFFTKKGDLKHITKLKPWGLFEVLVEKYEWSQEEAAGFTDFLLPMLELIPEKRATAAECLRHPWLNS

[11] = molecular target: T10, MAP4K4 (Homo sapiens, UniProt O95819); experiment: KINOMEscan; type: binding; conditions: read-out: %Ctrl @ 10000nM
T10 construct: purchased DiscoverX KINOMEscan

[12] = molecular target: T11, PKMYT1 (Homo sapiens, UniProt Q99640); experiment: KINOMEscan; type: binding; conditions: read-out: %Ctrl @ 10000nM
T11 construct: purchased DiscoverX KINOMEscan

[13] = molecular target: T12, KIT(V559D) (Homo sapiens, UniProt P10721, V559D); experiment: KINOMEscan; type: binding; conditions: read-out: %Ctrl @ 10000nM
T12 construct: purchased DiscoverX KINOMEscan

[14] = molecular target: T13, YANK1 (Homo sapiens, UniProt Q8WU08); experiment: KINOMEscan; type: binding; conditions: read-out: %Ctrl @ 10000nM
T13 construct: DNA label for qPCR (T7 phage fusion or DNA tag); purchased DiscoverX scanMAX; host or cells: E. coli BL21-derived (T7 phage) or HEK-293

[15] = molecular target: T14, EGFR(L858R) (Homo sapiens, UniProt P00533, L858R); experiment: KINOMEscan; type: binding; conditions: read-out: %Ctrl @ 10000nM
T14 construct: purchased DiscoverX KINOMEscan

[16] = molecular target: T15, STK16 (Homo sapiens, UniProt O75716); experiment: KINOMEscan; type: binding; conditions: read-out: %Ctrl @ 10000nM
T15 construct: purchased DiscoverX KINOMEscan
T15 sequence (O75716 whole entry): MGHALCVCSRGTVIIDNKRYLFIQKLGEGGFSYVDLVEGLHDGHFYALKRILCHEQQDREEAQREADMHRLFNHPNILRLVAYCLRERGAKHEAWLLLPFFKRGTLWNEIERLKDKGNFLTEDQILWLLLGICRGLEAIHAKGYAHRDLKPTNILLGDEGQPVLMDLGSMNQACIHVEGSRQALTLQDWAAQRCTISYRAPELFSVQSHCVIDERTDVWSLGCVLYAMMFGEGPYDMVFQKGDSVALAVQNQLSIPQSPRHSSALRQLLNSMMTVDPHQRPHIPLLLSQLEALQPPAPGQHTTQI

[17] = molecular target: T16, ABL1(M351T)-phosphorylated (Homo sapiens, UniProt P00519, M351T); experiment: KINOMEscan; type: binding; conditions: read-out: %Ctrl @ 10000nM
T16 construct: purchased DiscoverX KINOMEscan

[18] = molecular target: T17, MAP3K2 (Homo sapiens, UniProt Q9Y2U5); experiment: KINOMEscan; type: binding; conditions: read-out: %Ctrl @ 10000nM
T17 construct: purchased DiscoverX KINOMEscan

[19] = molecular target: T18, PRP4 (Homo sapiens, UniProt Q13523); experiment: KINOMEscan; type: binding; conditions: read-out: %Ctrl @ 10000nM
T18 construct: purchased DiscoverX KINOMEscan

[20] = molecular target: T19, PAK3 (Homo sapiens, UniProt O75914); experiment: KINOMEscan; type: binding; conditions: read-out: %Ctrl @ 10000nM
T19 construct: purchased DiscoverX KINOMEscan

[21] = molecular target: T20, MAP3K3 (Homo sapiens, UniProt Q99759); experiment: KINOMEscan; type: binding; conditions: read-out: %Ctrl @ 10000nM
T20 construct: purchased DiscoverX KINOMEscan

[22] = molecular target: T21, CDK2 (Homo sapiens, UniProt P24941); experiment: KINOMEscan; type: binding; conditions: read-out: %Ctrl @ 10000nM
T21 construct: purchased DiscoverX KINOMEscan

[23] = molecular target: T22, GRK2 (Homo sapiens, UniProt P25098); experiment: KINOMEscan; type: binding; conditions: read-out: %Ctrl @ 10000nM
T22 construct: purchased DiscoverX KINOMEscan

[24] = molecular target: T23, ERK8 (Homo sapiens, UniProt Q8TD08); experiment: KINOMEscan; type: binding; conditions: read-out: %Ctrl @ 10000nM
T23 construct: purchased DiscoverX KINOMEscan
T23 sequence (Q8TD08 whole entry): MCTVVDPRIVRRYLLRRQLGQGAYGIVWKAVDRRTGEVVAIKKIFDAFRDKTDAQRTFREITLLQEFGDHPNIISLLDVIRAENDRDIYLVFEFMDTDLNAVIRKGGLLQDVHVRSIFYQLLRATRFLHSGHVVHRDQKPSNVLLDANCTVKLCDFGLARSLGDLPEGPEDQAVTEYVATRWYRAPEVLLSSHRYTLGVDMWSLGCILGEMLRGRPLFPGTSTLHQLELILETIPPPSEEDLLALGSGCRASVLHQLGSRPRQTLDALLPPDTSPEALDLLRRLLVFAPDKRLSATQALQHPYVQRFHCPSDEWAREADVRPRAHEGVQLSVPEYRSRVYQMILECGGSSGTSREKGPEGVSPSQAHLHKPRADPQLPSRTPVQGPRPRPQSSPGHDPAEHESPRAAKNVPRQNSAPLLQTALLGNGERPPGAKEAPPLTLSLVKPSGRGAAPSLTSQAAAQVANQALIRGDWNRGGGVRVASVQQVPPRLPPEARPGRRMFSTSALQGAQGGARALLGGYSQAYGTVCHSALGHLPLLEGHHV

[25] = molecular target: T24, LATS1 (Homo sapiens, UniProt O95835); experiment: KINOMEscan; type: binding; conditions: read-out: %Ctrl @ 10000nM
T24 construct: purchased DiscoverX KINOMEscan
T24 sequence (O95835 whole entry): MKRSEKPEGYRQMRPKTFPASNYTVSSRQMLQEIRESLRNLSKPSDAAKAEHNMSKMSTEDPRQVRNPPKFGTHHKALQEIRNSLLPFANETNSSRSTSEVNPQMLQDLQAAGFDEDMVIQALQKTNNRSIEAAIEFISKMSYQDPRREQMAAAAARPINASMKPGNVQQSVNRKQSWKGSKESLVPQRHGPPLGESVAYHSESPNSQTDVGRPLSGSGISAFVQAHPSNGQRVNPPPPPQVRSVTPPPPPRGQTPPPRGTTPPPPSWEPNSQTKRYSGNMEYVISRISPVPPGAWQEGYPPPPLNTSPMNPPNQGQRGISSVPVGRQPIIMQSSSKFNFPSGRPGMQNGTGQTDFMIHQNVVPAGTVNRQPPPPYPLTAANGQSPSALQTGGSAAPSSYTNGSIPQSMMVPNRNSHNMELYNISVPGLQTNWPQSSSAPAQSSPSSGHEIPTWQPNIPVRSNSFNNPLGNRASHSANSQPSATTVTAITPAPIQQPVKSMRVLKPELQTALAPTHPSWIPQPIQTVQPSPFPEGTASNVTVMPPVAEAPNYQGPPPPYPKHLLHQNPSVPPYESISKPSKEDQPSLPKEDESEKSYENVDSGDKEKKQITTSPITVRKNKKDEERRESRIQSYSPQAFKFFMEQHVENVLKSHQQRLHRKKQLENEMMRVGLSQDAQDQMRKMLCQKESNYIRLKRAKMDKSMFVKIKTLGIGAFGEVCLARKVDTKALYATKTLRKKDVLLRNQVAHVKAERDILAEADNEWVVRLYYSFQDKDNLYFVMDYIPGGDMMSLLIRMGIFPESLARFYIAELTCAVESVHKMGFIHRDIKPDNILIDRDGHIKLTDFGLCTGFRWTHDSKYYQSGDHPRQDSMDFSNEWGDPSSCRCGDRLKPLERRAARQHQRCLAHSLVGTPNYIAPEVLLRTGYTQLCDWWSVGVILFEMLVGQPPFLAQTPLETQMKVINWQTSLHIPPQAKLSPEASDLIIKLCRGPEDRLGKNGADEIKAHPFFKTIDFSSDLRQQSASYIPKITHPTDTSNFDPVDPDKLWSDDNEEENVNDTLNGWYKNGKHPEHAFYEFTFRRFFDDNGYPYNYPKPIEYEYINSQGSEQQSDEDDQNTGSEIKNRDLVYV

[26] = molecular target: T25, EPHA6 (Homo sapiens, UniProt Q9UF33); experiment: KINOMEscan; type: binding; conditions: read-out: %Ctrl @ 10000nM
T25 construct: purchased DiscoverX KINOMEscan

[27] = molecular target: T26, LRRK2(G2019S) (Homo sapiens, UniProt Q5S007, G2019S); experiment: KINOMEscan; type: binding; conditions: read-out: %Ctrl @ 10000nM
T26 construct: purchased DiscoverX KINOMEscan

[28] = molecular target: T27, ADCK4 (Homo sapiens, UniProt Q96D53); experiment: KINOMEscan; type: binding; conditions: read-out: %Ctrl @ 10000nM
T27 construct: purchased DiscoverX KINOMEscan

[29] = molecular target: T28, HPK1 (Homo sapiens, UniProt Q92918); experiment: KINOMEscan; type: binding; conditions: read-out: %Ctrl @ 10000nM
T28 construct: purchased DiscoverX KINOMEscan

[30] = molecular target: T29, SYK (Homo sapiens, UniProt P43405); experiment: KINOMEscan; type: binding; conditions: read-out: %Ctrl @ 10000nM
T29 construct: purchased DiscoverX KINOMEscan

[31] = molecular target: T30, YES (Homo sapiens, UniProt P07947); experiment: KINOMEscan; type: binding; conditions: read-out: %Ctrl @ 10000nM
T30 construct: purchased DiscoverX scanMAX; host or cells: E. coli BL21-derived host (T7 phage) or HEK-293

[32] = molecular target: T31, CDK4-cyclinD3 (Homo sapiens, UniProt P11802); experiment: KINOMEscan; type: binding; conditions: read-out: %Ctrl @ 10000nM
T31 construct: purchased DiscoverX KINOMEscan

[33] = molecular target: T32, ALK (Homo sapiens, UniProt Q9UM73); experiment: KINOMEscan; type: binding; conditions: read-out: %Ctrl @ 10000nM
T32 construct: purchased DiscoverX KINOMEscan

[34] = molecular target: T33, EPHB4 (Homo sapiens, UniProt P54760); experiment: KINOMEscan; type: binding; conditions: read-out: %Ctrl @ 10000nM
T33 construct: purchased DiscoverX KINOMEscan
T33 sequence (P54760 16-987): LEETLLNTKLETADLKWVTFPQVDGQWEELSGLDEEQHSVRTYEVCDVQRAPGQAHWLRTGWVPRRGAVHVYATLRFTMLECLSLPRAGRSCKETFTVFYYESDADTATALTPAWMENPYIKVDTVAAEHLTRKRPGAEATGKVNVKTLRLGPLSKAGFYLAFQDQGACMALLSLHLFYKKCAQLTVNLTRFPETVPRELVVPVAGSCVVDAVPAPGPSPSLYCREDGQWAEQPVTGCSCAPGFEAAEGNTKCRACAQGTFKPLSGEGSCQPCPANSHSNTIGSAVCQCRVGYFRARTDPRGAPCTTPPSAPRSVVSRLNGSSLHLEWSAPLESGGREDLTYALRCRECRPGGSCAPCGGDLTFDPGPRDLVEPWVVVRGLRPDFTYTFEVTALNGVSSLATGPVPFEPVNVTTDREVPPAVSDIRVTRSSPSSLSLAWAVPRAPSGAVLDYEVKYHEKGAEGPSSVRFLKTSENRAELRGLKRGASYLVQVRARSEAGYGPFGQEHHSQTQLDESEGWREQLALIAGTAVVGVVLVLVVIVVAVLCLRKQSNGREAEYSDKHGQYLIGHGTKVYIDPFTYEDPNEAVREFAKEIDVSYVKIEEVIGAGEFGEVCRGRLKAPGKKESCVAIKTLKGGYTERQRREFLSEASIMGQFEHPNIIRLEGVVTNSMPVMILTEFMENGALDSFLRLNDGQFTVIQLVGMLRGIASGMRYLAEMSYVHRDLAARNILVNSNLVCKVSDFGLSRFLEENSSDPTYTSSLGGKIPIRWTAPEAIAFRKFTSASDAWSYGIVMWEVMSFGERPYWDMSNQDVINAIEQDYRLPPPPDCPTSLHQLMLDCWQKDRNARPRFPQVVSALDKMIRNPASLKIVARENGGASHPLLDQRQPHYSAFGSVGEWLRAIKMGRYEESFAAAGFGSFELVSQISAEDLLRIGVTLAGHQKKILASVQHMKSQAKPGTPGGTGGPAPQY

[35] = molecular target: T34, RPS6KA4(Kin.Dom.2-C-terminal) (Homo sapiens, UniProt O75676); experiment: KINOMEscan; type: binding; conditions: read-out: %Ctrl @ 10000nM
T34 construct: RPS6KA4(Kin.Dom.2-C-terminal); purchased DiscoverX KINOMEscan

[36] = molecular target: T35, MET(Y1235D) (Homo sapiens, UniProt P08581, Y1235D); experiment: KINOMEscan; type: binding; conditions: read-out: %Ctrl @ 10000nM
T35 construct: purchased DiscoverX KINOMEscan

[37] = molecular target: T36, AURKA (Homo sapiens, UniProt O14965); experiment: KINOMEscan; type: binding; conditions: read-out: %Ctrl @ 10000nM
T36 construct: purchased DiscoverX KINOMEscan

[38] = molecular target: T37, PRKCH (Homo sapiens, UniProt P24723); experiment: KINOMEscan; type: binding; conditions: read-out: %Ctrl @ 10000nM
T37 construct: purchased DiscoverX KINOMEscan

[39] = molecular target: T38, CSNK1D (Homo sapiens, UniProt P48730); experiment: KINOMEscan; type: binding; conditions: read-out: %Ctrl @ 10000nM
T38 construct: purchased DiscoverX KINOMEscan

[40] = molecular target: T39, RSK2(Kin.Dom.2-C-terminal) (Homo sapiens, UniProt P51812); experiment: KINOMEscan; type: binding; conditions: read-out: %Ctrl @ 10000nM
T39 construct: RSK2(Kin.Dom.2-C-terminal); purchased DiscoverX KINOMEscan

[41] = molecular target: T40, MST3 (Homo sapiens, UniProt Q9Y6E0); experiment: KINOMEscan; type: binding; conditions: read-out: %Ctrl @ 10000nM
T40 construct: purchased DiscoverX KINOMEscan
T40 sequence (Q9Y6E0 whole entry): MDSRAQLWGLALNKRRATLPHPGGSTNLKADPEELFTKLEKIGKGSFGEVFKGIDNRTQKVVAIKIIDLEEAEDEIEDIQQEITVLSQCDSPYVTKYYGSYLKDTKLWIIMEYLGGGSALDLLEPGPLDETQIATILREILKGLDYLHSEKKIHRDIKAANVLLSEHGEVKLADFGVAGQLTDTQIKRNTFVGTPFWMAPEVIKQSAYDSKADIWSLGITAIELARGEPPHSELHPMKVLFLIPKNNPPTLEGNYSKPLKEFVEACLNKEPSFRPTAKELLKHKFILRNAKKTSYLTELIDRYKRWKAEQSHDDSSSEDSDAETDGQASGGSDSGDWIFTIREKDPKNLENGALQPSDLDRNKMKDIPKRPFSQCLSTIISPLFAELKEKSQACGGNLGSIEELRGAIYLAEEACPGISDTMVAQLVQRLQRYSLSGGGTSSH

Which results are given for `CC(C)c1ccc(CC(=O)N2CCN(c3ccc(C#N)nn3)CC2)cc1` [PZ-2891, 6-(4-(2-(4-isopropylphenyl)acetyl)piperazin-1-yl)pyridazine-3-carbonitrile]?
remaining binding at 10 µM [1]: 97%; remaining binding at 10 µM [2]: 98%; remaining binding at 10 µM [3]: 95%; remaining binding at 10 µM [4]: 93%; remaining binding at 10 µM [5]: 100%; fraction unbound [6]: 0.07; remaining binding at 10 µM [7]: 89%; remaining binding at 10 µM [8]: 91%; remaining binding at 10 µM [9]: 98%; remaining binding at 10 µM [10]: 100%; remaining binding at 10 µM [11]: 100%; remaining binding at 10 µM [12]: 100%; remaining binding at 10 µM [13]: 81%; remaining binding at 10 µM [14]: 74%; remaining binding at 10 µM [15]: 84%; remaining binding at 10 µM [16]: 98%; remaining binding at 10 µM [17]: 96%; remaining binding at 10 µM [18]: 96%; remaining binding at 10 µM [19]: 86%; remaining binding at 10 µM [20]: 88%; remaining binding at 10 µM [21]: 65%; remaining binding at 10 µM [22]: 87%; remaining binding at 10 µM [23]: 56%; remaining binding at 10 µM [24]: 81%; remaining binding at 10 µM [25]: 86%; remaining binding at 10 µM [26]: 89%; remaining binding at 10 µM [27]: 100%; remaining binding at 10 µM [28]: 92%; remaining binding at 10 µM [29]: 100%; remaining binding at 10 µM [30]: 82%; remaining binding at 10 µM [31]: 90%; remaining binding at 10 µM [32]: 71%; remaining binding at 10 µM [33]: 100%; remaining binding at 10 µM [34]: 97%; remaining binding at 10 µM [35]: 67%; remaining binding at 10 µM [36]: 66%; remaining binding at 10 µM [37]: 75%; remaining binding at 10 µM [38]: 92%; remaining binding at 10 µM [39]: 93%; remaining binding at 10 µM [40]: 89%; remaining binding at 10 µM [41]: 73%
